{"source": "a melting point compilation (Tetko et al.; mined from patent text by program, amines drawn as free bases though some values may be those of a salt)"}
{"units": {"melting point": "°C"}}
{"smiles": "COc1cc2c(cc1OC)CCCC(C(=O)N1CCN(C(=O)c3cc(OC)c(OC)c(OC)c3)C(C(=O)N(C)C)C1)=C2", "note": "(stereo not given)", "melting point": "177 to 178"}
{"smiles": "CCCCC1(CCCC)CCc2ccc(OCc3ccc4ccccc4n3)cc2C1=O", "melting point": "88 to 89"}
{"smiles": "CC(C)(C)OC(=O)NCCc1cccc(-c2nc(=O)c3ccccc3s2)n1", "melting point": "170 to 171"}
{"smiles": "Cc1ccc(N2C(=O)C(O)=C(C(=O)c3ccc(C(C)C)cc3)C2c2ccc(N3CCOCC3)cc2)nn1", "note": "(stereo not given)", "melting point": "293 to 294"}
{"smiles": "COc1ccc(O[C@@H]2CCNC[C@H]2O)cc1", "note": "(relative stereo)", "melting point": "171 to 173"}
{"smiles": "CCOC(=O)C1(C2c3[nH]c4ccc(Cl)cc4c3CCN2C(=O)c2ccno2)CCC1", "note": "(stereo not given)", "melting point": "166 to 167"}
{"smiles": "COC(=O)c1cc(-n2cccc2)ccc1C", "melting point": "56 to 57"}
{"smiles": "O=C(Cc1ccccc1)c1ccc(OCC(F)(F)F)cc1", "melting point": 108}
{"smiles": "COc1cc2ccnc(C=Cc3c(Cl)cccc3Cl)c2cc1OC", "melting point": "145 to 146"}
{"smiles": "CC(=O)N1CCC2(c3ccccc3)OC2C1", "note": "(stereo not given)", "melting point": "68 to 71"}
{"smiles": "Cc1cccc2n[nH]c(=O)n12", "melting point": "182 to 183"}
{"smiles": "Cn1c(SCc2ccccc2)nc2c(c1=O)NCN2C(c1ccccc1)(c1ccccc1)c1ccccc1", "melting point": "255 to 258"}
{"smiles": "CC(=O)OC1CC2(C)C(=O)CCC2C2CCC3=CC(=O)C=CC3(C)C12F", "note": "(stereo not given)", "melting point": "177 to 178"}
{"smiles": "O=C(C=CCc1c[nH]c2ccccc12)NC(C(=O)OCc1ccccc1)C(=O)OCc1ccccc1", "melting point": "162 to 163"}
{"smiles": "COCCCOc1cc(C[C@@H](C(=O)N2C(=O)OC[C@H]2Cc2ccccc2)C(C)C)ccc1OC", "melting point": "55 to 56"}
{"smiles": "O=C(c1cccs1)c1cnn2c(-c3cccc([N+](=O)[O-])c3)ccnc12", "melting point": "199 to 201"}
{"smiles": "CCOC(=O)C(Oc1cc(N)c(Cl)cc1C(=O)NCCN(CC)CC)c1ccccc1", "note": "(stereo not given)", "melting point": "84 to 87"}
{"smiles": "CCOCc1nc2c(N)nc3cccnc3c2n1Cc1cc(-c2ccc(F)cc2)no1", "melting point": "190 to 191"}
{"smiles": "CS(=O)(=O)c1ccc(Oc2ccc(C(=O)c3ccccc3)cc2)nc1", "melting point": "130 to 132"}
{"smiles": "COc1cc(C=O)cc2c1OCCC2", "melting point": 81}
{"smiles": "Cc1ccc2nc(SCC(=O)O)oc2c1", "melting point": "144 to 146"}
{"smiles": "O=c1c2c([nH]c3ccccc13)C(C1Cc3ccccc3O1)N(c1ncc(-c3ccccn3)cn1)C2", "note": "(stereo not given)", "melting point": "201 to 203"}
{"smiles": "COc1ccc(C(=O)n2c3c(c4cc(C)ccc42)CC(C(=O)O)CC3)cc1", "note": "(stereo not given)", "melting point": "172 to 173"}
{"smiles": "COC(=O)[C@@]12CO[C@@H](C(C)(C)C)N1C(=O)[C@](Cc1ccccc1)(C(=O)O)C2", "melting point": "> 133"}
{"smiles": "CC(C)(C)OC(=O)N1CCC(O)(CS(=O)(=O)NC(=O)c2cc(C(F)(F)F)cc(C(F)(F)F)c2)CC1", "melting point": "154 to 159"}
{"smiles": "Nc1cc(C(=O)c2cccc(C(=O)c3ccc(Cl)c(N)c3)c2)ccc1Cl", "melting point": 209}
{"smiles": "Cc1nc(Nc2nc(N)nc(-c3ccccc3)c2-c2ccc(=O)n(C(C)C)n2)sc1C", "melting point": "256 to 258"}
{"smiles": "Cc1c(Cc2cccnc2)sc2cc(Br)ccc12", "melting point": "69 to 70"}
{"smiles": "Clc1ccc(-c2ncsc2Cn2cncn2)c(Cl)c1", "melting point": "120 to 123"}
{"smiles": "Cn1cncc1C(O)(c1ccc(Cl)cc1)c1ccc2c(c1)c(CCc1cccc(Cl)c1)cc(=O)n2C", "note": "(stereo not given)", "melting point": 190}
{"smiles": "CC(C)(C)c1cc(C2=NOC(CC(=O)Nc3ccc([N+](=O)[O-])cc3)C2)cc(C(C)(C)C)c1O", "note": "(stereo not given)", "melting point": "149 to 151"}
{"smiles": "Cn1c(C(F)(F)F)n[nH]c1=O", "melting point": 64}
{"smiles": "NC(CCCCNC(=O)NC(Cc1c[nH]c2ccccc12)C(=O)O)C(=O)O", "note": "(stereo not given)", "melting point": 133}
{"smiles": "NCCCCn1cnc2c(N)ncnc21", "melting point": "62 to 64"}
{"smiles": "CCCCCCCCCC(=O)Oc1ccc2c(N3CCN(CCCC(=O)c4ccc(F)cc4)CC3)noc2c1", "melting point": "69 to 71"}
{"smiles": "CNC(=O)n1cnc(C(N)=O)c1N", "melting point": "165 to 169"}
{"smiles": "COC(=O)c1ccc2cc(-c3ccc(OC)c(C45CC6CC(CC(C6)C4)C5)c3)ccc2c1", "melting point": "221 to 227"}
{"smiles": "N=C(N)NC1=NC(=O)C(=Cc2cccc(-c3cc(F)c(O)c(C45CC6CC(CC(C6)C4)C5)c3)c2)S1", "melting point": "288 to 290"}
{"smiles": "CCOC(=O)C(Cc1ccc(C(F)(F)F)cc1)C(=O)c1cccc(F)c1", "note": "(stereo not given)", "melting point": "50 to 51"}
{"smiles": "O=c1nc(-c2ccccn2)sc2cccc(F)c12", "melting point": "256 to 257"}
{"smiles": "CC(C)OC(=O)c1cc(-c2nn(C)c(C(F)(F)F)c2C=O)c(F)cc1Cl", "melting point": 90}
{"smiles": "CCCCCC1Cc2cc(OCC(=O)O)c(Cl)c(Cl)c2C1=O", "note": "(stereo not given)", "melting point": "192 to 195"}
{"smiles": "Cc1cc(-c2nc3ccccc3c(=O)n2-c2ccc(I)cc2)cc(C)c1OCCO", "melting point": "101 to 103"}
{"smiles": "NS(=O)(=O)c1cccc(-c2cc(-c3nc(-c4ccc(C(F)(F)F)c(OCC(F)(F)F)c4)cc(C(F)(F)F)n3)ccn2)c1", "melting point": 211}
{"smiles": "Cc1ccc(Oc2ccccc2C(=N)NO)c(O)c1", "melting point": "85 to 87"}
{"smiles": "c1ccc2c(N3CCOCC3)nc(N3CCOCC3)nc2c1", "melting point": "172 to 174"}
{"smiles": "Cc1cc(OC(=O)c2ccccc2)c2ccccc2c1OCc1ccccc1", "melting point": "179 to 180"}
{"smiles": "O=C(O)C1CC1(C(=O)O)c1ccc([N+](=O)[O-])cc1", "note": "(stereo not given)", "melting point": "138 to 144"}
{"smiles": "OCCCCCCCCCCCCCCCCCCCCO", "melting point": 93}
{"smiles": "CCCC(N)(CO)CCCc1ccc(Sc2cccc(OCc3ccccc3)c2)cc1Cl", "note": "(single isomer, unassigned; (+))", "melting point": "55 to 57"}
{"smiles": "CCCC(=O)c1cnc2ccccc2c1Nc1ccccc1OC", "melting point": "167 to 168"}
{"smiles": "CCOC(=O)C=Cc1ccc2c(c1)CC(CNS(=O)(=O)c1ccc(Cl)cc1)C2", "note": "(stereo not given)", "melting point": "113 to 115"}
{"smiles": "CNC(=O)N1N=C(c2ccc(N)cc2)c2ccc(Cl)cc2CC1C", "note": "(stereo not given)", "melting point": "134 to 136"}
{"smiles": "Cc1ccc(S(=O)(=O)Oc2cc(Cl)c(C=O)c(Cl)c2)cc1", "melting point": "77 to 80"}
{"smiles": "CCN(CC)CCOCCc1ccc2sc(C(N)=O)cc2c1", "melting point": "82 to 84"}
{"smiles": "O=S(=O)(F)CCCCCCCc1ccc(OCc2ccccc2)cc1", "melting point": "35 to 38"}
{"smiles": "CCCN(CCC)C1Cc2cccc3nc(N)n(c23)C1", "note": "(stereo not given)", "melting point": "160 to 170"}
{"smiles": "O=C(CBr)Nc1cc(Cl)ccc1C(=O)O", "melting point": "156 to 158"}
{"smiles": "C[C@@H]1N=C(c2ccccc2F)c2c(ccc(N)c2Cl)N(C)C1=O", "melting point": "222 to 226"}
{"smiles": "COc1ccc(OC)c(-c2cn(C)cc(C#N)c2=O)c1", "melting point": "209 to 211"}
{"smiles": "Cc1oc(-c2ccco2)nc1COc1ccc(CO)cc1Cl", "melting point": "143 to 144"}
{"smiles": "O=c1[nH]c2c(Cl)cc(Cl)cc2c2nc(-c3ccccc3)nn12", "melting point": "309 to 311"}
{"smiles": "CC(=O)NCCc1c(-c2ccccc2)oc2ccc3c(c12)OCCO3", "melting point": 192}
{"smiles": "COc1ccnc(C(C)Sc2nc3cc(OC(F)F)c(C)cc3[nH]2)c1", "note": "(stereo not given)", "melting point": "183 to 184"}
{"smiles": "CC(C)(NC(=O)CCn1cnc(C=O)c1)c1ccc(Cl)c(Cl)c1", "melting point": "161 to 163"}
{"smiles": "CNC(=S)NN=C(CCCNC(=O)c1ccccc1)c1ccccc1", "melting point": "114 to 118"}
{"smiles": "Cc1nc(N)c2nc(C)n(CCNC(=O)N3CCOCC3)c2c1C", "melting point": "219 to 221"}
{"smiles": "Cc1ccc(S)c(C=O)c1", "melting point": "181 to 184"}
{"smiles": "CC1(C)N=C(c2ccccc2Cl)c2cc([N+](=O)[O-])ccc2NC1=O", "melting point": "125 to 127"}
{"smiles": "C=C(c1ccccc1)c1ccc(N2CCCC2)cc1", "melting point": "82.5 to 83"}
{"smiles": "O=Cc1nn2c3c(cccc13)CCC2", "melting point": "119 to 120"}
{"smiles": "Cn1cc(C(=O)NCc2ccc(Cl)cc2)c(=O)c2cc(CCCCO)oc21", "melting point": "157 to 160"}
{"smiles": "C=Cc1c(NC(C)=O)cc(-c2ccc(Cl)c(OC)c2F)nc1C(=O)OC", "melting point": "143 to 145"}
{"smiles": "CC1(C)C=Cc2c(ccc3c2C(=O)C(O)=CC3=O)O1", "melting point": 208}
{"smiles": "COCCc1nc2c(N)nc3ccccc3c2n1CCCCCC(=O)N1CCOCC1", "melting point": "131 to 132"}
{"smiles": "COc1cc(OC)nc(NC(=O)NS(=O)(=O)c2nn(C)c3cccc(F)c23)n1", "melting point": "205 to 209"}
{"smiles": "CN(C)c1ccc(C(=O)c2ccncc2)cc1", "melting point": "122 to 124"}
{"smiles": "CCCCn1c(CCCCN(C(N)=O)c2ccccc2)nc2c(N)nc3ccccc3c21", "melting point": "222 to 225"}
{"smiles": "CC(C)COC1=C(Cc2ccc(Cl)cc2)C(=O)CC(C)(C)C1", "melting point": "60 to 61"}
{"smiles": "Cc1cccc(C(=O)c2nc(-c3ccccn3)no2)c1", "melting point": "127 to 128"}
{"smiles": "CC(=O)OC1CSC(Oc2cccnc2-c2ccccc2)C(OC(C)=O)C1OC(C)=O", "note": "(stereo not given)", "melting point": "69 to 101"}
{"smiles": "CC(=O)Nc1nc(C)c(CCCl)s1", "melting point": "172 to 174"}
{"smiles": "O=C1Cc2c(Oc3ccccc3)ccc(Cl)c2N1", "melting point": "200 to 202"}
{"smiles": "COc1ccnc(Cl)c1NS(=O)(=O)c1nc2cc(F)nc(OC)n2n1", "melting point": "187 to 188"}
{"smiles": "CCOC(=O)CCc1ccc(N2CCN(c3ccc(C(=N)NC(=O)OCC)cc3)C2=O)cc1", "melting point": "> 335"}
{"smiles": "COC(=O)c1cc(OC)c2c(c1)OCO2", "melting point": 91}
{"smiles": "COc1ccc(C2(C#Cc3cccc(NS(C)(=O)=O)c3)CCCC(=O)C2)cc1OC1CCCC1", "note": "(stereo not given)", "melting point": "59 to 62"}
{"smiles": "CCOC(=O)CC1C(=O)N(CCc2c[nH]c3ccccc23)CCN1C(=O)c1ccccc1", "note": "(stereo not given)", "melting point": 144}
{"smiles": "COc1ccc(CC(N)=O)cc1OC", "melting point": "142 to 144"}
{"smiles": "N#Cc1ccc2ccn3cccc3c(=O)c2c1", "melting point": "213 to 217"}
{"smiles": "CCOC(=O)c1nccn1CCCCc1ccc(OCc2coc(/C=C/c3ccccc3)n2)cc1", "melting point": "96 to 97"}
{"smiles": "O=C(c1ccc([N+](=O)[O-])cc1)N1Cc2ccccc2Sc2ccccc21", "melting point": "147 to 149"}
{"smiles": "CCCCOc1c(CN2C(=O)c3ccccc3C2=O)n(CCC(=O)O)c(=O)c2cc(Cl)c(Cl)cc12", "melting point": "196 to 197"}
{"smiles": "CCc1ccc2c(=O)c(CSC)cn(C)c2c1", "melting point": "104 to 106"}
{"smiles": "COC(=O)c1ccc(SCc2cccc(Cl)c2)cn1", "melting point": "75 to 77"}
{"smiles": "O=C1C(O)=C(c2ccccc2)CN1Cc1ccco1", "melting point": "222 to 226"}
{"smiles": "Cn1c(CC#N)cc(Cl)c1C(=O)c1ccc(Cl)cc1", "melting point": "139 to 142"}
{"smiles": "COc1ccc([C@@H]2CN(C)CC[C@@H]2NC(=O)c2ccc(C)cc2)cc1OC", "note": "(relative stereo)", "melting point": "145 to 146"}
{"smiles": "Nc1nc2ccc(Oc3ccc4c(c3)OCO4)cc2s1", "melting point": "154 to 157"}
{"smiles": "O=C(O)CN1C(=O)O[C@H](c2ccccc2)[C@@H]1c1ccccc1", "melting point": "161 to 163"}
